# Results reported in patent US11261192B2, “Substituted 1,2-dihydro-3H-pyrazolo[3,4-D]pyrimidin-3-ones” (Recurium IP Holdings, LLC, priority 2018, dated 2022).
# Test system: H23 cells
# Assay: H23 Cellular Proliferation Assay (CellTiter-Glo)
# Assay type: cell-based
# Conditions: Homo sapiens, NCI-H23, 96 h, 4 days, read-out: H23 CTG IC50
# Experimental: H23 Cellular Proliferation Assay
# Cells were treated with compounds diluted in DMSO and a 9 point 5-fold serial dilutions. Plates were placed in 37° C., 5% CO2 for to incubate for 4 days. Before they were developed by adding 100 μL of CellTiter-Glo reagent (Promega) to the assay plate, plates were shaken briefly for 2 mins and allowed to incubate at rt for 10 mins. The plates are read with a M5e plate reader according to CellTiter-Glo protocol. The GraphPad Prism software is used to get IC50 values.
row,Compound,IC50
1,"C=CCn1c(=O)c2cnc(Nc3ccc(N4CCN(C)CC4)c(C)c3)nc2n1-c1ccc2c(n1)[C@@](C)(O)CCC2 (single isomer, unassigned) [Example 27A]",0.1 to 1 µM
2,"C=CCn1c(=O)c2cnc(Nc3ccc(N4CCN(C)CC4)cc3)nc2n1-c1ccc2c(c1)[C@@](O)(CC)CC2 (single isomer, unassigned) [Example 22B]",0.1 to 1 µM
3,"C=CCn1c(=O)c2cnc(Nc3ccc(N4CCN(C)CC4)cc3)nc2n1-c1ccc2c(n1)[C@](O)(C1CC1)CC2 (single isomer, unassigned) [Example 16A]",0.1 to 1 µM
4,"C=CCn1c(=O)c2cnc(Nc3ccc(N4CCN(C)C[C@H]4C)cc3)nc2n1-c1ccc2c(n1)[C@](C)(O)CC2 (single isomer, unassigned) [Example 20B]",0.1 to 1 µM
5,"C=CCn1c(=O)c2cnc(Nc3ccc(N4CCN(C)CC4)cc3)nc2n1-c1ccc2c(n1)C(F)(F)CC2 [Example 8, 2-Allyl-1-(7,7-difluoro-6,7-dihydro-5H-cyclopenta[b]pyridin-2-yl)-6-((4-(4-methylpiperazin-1-yl)phenyl)amino)-1,2-dihydro-3H-pyrazolo[3,4-d]pyrimidin-3-one]",0.1 to 1 µM
6,"C=CCn1c(=O)c2cnc(Nc3ccc(N4CCN(C)CC4)c(F)c3)nc2n1-c1ccc2c(n1)[C@@](C)(O)CC2 (single isomer, unassigned) [Example 11A]",> 1 µM
7,"C=CCn1c(=O)c2cnc(Nc3ccc(N4CCN(C)CC4)cc3)nc2n1-c1cc(F)c2c(c1)[C@](C)(O)CC2 (single isomer, unassigned) [Example 24B]",0.1 to 1 µM
8,"C=CCn1c(=O)c2cnc(Nc3ccc(N4CCN(C)CC4)cc3)nc2n1-c1ccc2c(c1)[C@@](O)(CC)CO2 (single isomer, unassigned) [Example 5B]",0.1 to 1 µM
9,"C=CCn1c(=O)c2cnc(Nc3ccc(N4CCN(C)CC4)cc3)nc2n1-c1ccc2c(n1)[C@@](C)(O)CO2 (single isomer, unassigned) [Example 4A]",> 1 µM
10,"C=CCn1c(=O)c2cnc(Nc3ccc(N4CCN(C)[C@@H](C)C4)cc3)nc2n1-c1ccc2c(n1)[C@](C)(O)CC2 (single isomer, unassigned) [Example 17B]",0.1 to 1 µM
11,"C=CCn1c(=O)c2cnc(Nc3ccc(N4CCN(C)[C@H](C)C4)cc3)nc2n1-c1ccc2c(n1)[C@@](C)(O)CC2 (single isomer, unassigned) [Example 18A]",0.1 to 1 µM
12,"C=CCn1c(=O)c2cnc(Nc3ccc(C4=CCN(C)CC4)c(C)c3)nc2n1-c1ccc2c(n1)[C@](O)(CC)CC2 (single isomer, unassigned) [Example 40A]",0.1 to 1 µM
13,"C=CCn1c(=O)c2cnc(Nc3ccc(N4CCN(C)[C@H](C)C4)cc3)nc2n1-c1ccc2c(n1)[C@](C)(O)CC2 (single isomer, unassigned) [Example 18B]",0.1 to 1 µM
14,"C=CCn1c(=O)c2cnc(Nc3ccc(N4CCNCC4)c(C)c3)nc2n1-c1ccc2c(n1)[C@](O)(CC)CC2 (single isomer, unassigned) [Example 13A]",0.1 to 1 µM
15,"C=CCn1c(=O)c2cnc(Nc3ccc(N4CCN(C)CC4)c(C)c3)nc2n1-c1ccc2c(n1)[C@](O)(CC)CC2 (single isomer, unassigned) [Example 12A]",0.1 to 1 µM
16,"C=CCn1c(=O)c2cnc(Nc3ccc(N4CCN(C)CC4)cc3)nc2n1-c1ccc2c(n1)[C@](C)(O)CCC2 (single isomer, unassigned) [Example 25B]",0.1 to 1 µM
17,"C=CCn1c(=O)c2cnc(Nc3ccc(N4CCNCC4)cc3)nc2n1-c1ccc2c(n1)[C@@](C)(O)CCC2 (single isomer, unassigned) [Example 28A]",0.1 to 1 µM
18,"C=CCn1c(=O)c2cnc(Nc3ccc(N4CCN(C)CC4)cc3)nc2n1-c1ccc2c(n1)[C@@](O)(C(F)(F)F)CO2 (single isomer, unassigned) [Example 6B]",0.1 to 1 µM
19,"C=CCn1c(=O)c2cnc(Nc3ccc(N4CCN(C)CC4)cc3)nc2n1-c1cccc(C(C)(C)O)n1 [AZD1775, 2-allyl-1-(6-(2-hydroxypropan-2-yl)pyridin-2-yl)-6-(4-(4-methylpiperazin-1-yl)phenylamino)-1,2-dihydropyrazolo[3,4-d]pyrimidin-3-one, reference compound]",0.1 to 1 µM
20,"C=CCn1c(=O)c2cnc(Nc3ccc(C4=CCN(C)CC4)c(C)c3)nc2n1-c1ccc2c(n1)[C@@](O)(CC)CC2 (single isomer, unassigned) [Example 40B]",< 0.1 µM
21,"C=CCn1c(=O)c2cnc(Nc3ccc(N4CCN(C)CC4)c(C)c3)nc2n1-c1ccc2c(c1)[C@@](C)(O)CC2 (single isomer, unassigned) [Example 23A]",0.1 to 1 µM

row,Compound,IC50
1,"C=CCn1c(=O)c2cnc(Nc3ccc(N4CCN(C)[C@@H](C)C4)cc3)nc2n1-c1ccc2c(n1)[C@@](C)(O)CC2 (single isomer, unassigned) [Example 17A]",0.1 to 1 µM
2,"C=CCn1c(=O)c2cnc(Nc3ccc(N4CCN(C)CC4)cc3)nc2n1-c1ccc2c(n1)[C@](C)(NC(C)=O)CCC2 (single isomer, unassigned) [Example 41B]",> 1 µM
3,"C=CCn1c(=O)c2cnc(Nc3ccc(N4CCN(C)C[C@H]4C)cc3)nc2n1-c1ccc2c(n1)[C@@](C)(O)CC2 (single isomer, unassigned) [Example 20A]",> 1 µM
4,"C=CCn1c(=O)c2cnc(Nc3ccc(N4CCN(C)CC4)cc3)nc2n1-c1ccc2c(n1)[C@@](O)(C(C)(F)F)CC2 (single isomer, unassigned) [Example 38B]",0.1 to 1 µM
5,"C=CCn1c(=O)c2cnc(Nc3ccc(N4CCN(C)CC4)cc3)nc2n1-c1cc(F)c2c(c1)[C@@](C)(O)CC2 (single isomer, unassigned) [Example 24A]",0.1 to 1 µM
6,"C=CCn1c(=O)c2cnc(Nc3ccc(N4CCN(C)CC4)cc3)nc2n1-c1ccc2c(c1)[C@](O)(CC)CO2 (single isomer, unassigned) [Example 5A]",> 1 µM
7,"C=CCn1c(=O)c2cnc(Nc3ccc(N4CCNCC4)cc3)nc2n1-c1ccc2c(n1)[C@@](O)(CC)CC2 [Example 14, (R)-2-allyl-1-(7-ethyl-7-hydroxy-6,7-dihydro-5H-cyclopenta[b]pyridin-2-yl)-6-((4-(piperazin-1-yl)phenyl)amino)-1,2-dihydro-3H-pyrazolo[3,4-d]pyrimidin-3-one]",0.1 to 1 µM
8,"C=CCn1c(=O)c2cnc(Nc3ccc(N4CCNCC4)cc3)nc2n1-c1ccc2c(n1)[C@](C)(O)CCC2 (single isomer, unassigned) [Example 28B]",0.1 to 1 µM
9,"C=CCn1c(=O)c2cnc(Nc3ccc(N4CCN(C)CC4)c(C)c3)nc2n1-c1ccc2c(c1)[C@](C)(O)CC2 (single isomer, unassigned) [Example 23B]",< 0.1 µM
10,"C=CCn1c(=O)c2cnc(Nc3ccc4c(c3)CNCC43CC3)nc2n1-c1ccc2c(n1)[C@@](C)(O)CCC2 (single isomer, unassigned) [Example 31A]",< 0.1 µM
11,"C=CCn1c(=O)c2cnc(Nc3ccc(N4CCN(C)CC4)cc3)nc2n1-c1ccc2c(n1)[C@](O)(C(C)(F)F)CC2 (single isomer, unassigned) [Example 38A]",> 1 µM
12,"C=CCn1c(=O)c2cnc(Nc3ccc(N4CCN(C)CC4)cc3)nc2n1-c1cc2c(cn1)CC[C@]2(C)O (single isomer, unassigned) [Example 37A]",> 1 µM
13,"C=CCn1c(=O)c2cnc(Nc3ccc4c(c3)CNCC43CC3)nc2n1-c1ccc2c(n1)[C@](C)(O)CCC2 (single isomer, unassigned) [Example 31B]",< 0.1 µM
14,"C=CCn1c(=O)c2cnc(Nc3ccc(N4CCN(C)CC4)cc3)nc2n1-c1ccc2c(n1)[C@](O)(C(F)(F)F)CO2 (single isomer, unassigned) [Example 6A]",> 1 µM
15,"C=CCn1c(=O)c2cnc(Nc3ccc(N4CCN(C)C[C@@H]4C)cc3)nc2n1-c1ccc2c(n1)[C@](C)(O)CC2 (single isomer, unassigned) [Example 19B]",0.1 to 1 µM
16,"C=CCn1c(=O)c2cnc(Nc3ccc(N4CCN(C)C[C@@H]4C)cc3)nc2n1-c1ccc2c(n1)[C@@](C)(O)CC2 (single isomer, unassigned) [Example 19A]",> 1 µM
17,"C=CCn1c(=O)c2cnc(Nc3ccc(N4CCNCC4)c(C)c3)nc2n1-c1ccc2c(n1)[C@@](O)(CC)CC2 (single isomer, unassigned) [Example 13B]",< 0.1 µM
18,"C=CCn1c(=O)c2cnc(Nc3ccc(N4CCN(C)CC4)cc3)nc2n1-c1ccc2c(n1)[C@@](C)(NC(C)=O)CCC2 (single isomer, unassigned) [Example 41A]",> 1 µM
19,"C=CCn1c(=O)c2cnc(Nc3ccc4c(ccn4C4CCN(C)CC4)c3)nc2n1-c1ccc2c(n1)[C@@](O)(CC)CC2 (single isomer, unassigned) [Example 39B]",0.1 to 1 µM
20,"C=CCn1c(=O)c2cnc(Nc3ccc4c(ccn4C4CCN(C)CC4)c3)nc2n1-c1ccc2c(n1)[C@](O)(CC)CC2 (single isomer, unassigned) [Example 39A]",0.1 to 1 µM
21,"C=CCn1c(=O)c2cnc(Nc3ccc(N4CCN(C)CC4)cc3)nc2n1-c1cc2c(cn1)CC[C@@]2(C)O (single isomer, unassigned) [Example 37B]",> 1 µM

# Target: Wee1 kinase (Homo sapiens, UniProt P30291)
# Sequence (P30291 whole entry): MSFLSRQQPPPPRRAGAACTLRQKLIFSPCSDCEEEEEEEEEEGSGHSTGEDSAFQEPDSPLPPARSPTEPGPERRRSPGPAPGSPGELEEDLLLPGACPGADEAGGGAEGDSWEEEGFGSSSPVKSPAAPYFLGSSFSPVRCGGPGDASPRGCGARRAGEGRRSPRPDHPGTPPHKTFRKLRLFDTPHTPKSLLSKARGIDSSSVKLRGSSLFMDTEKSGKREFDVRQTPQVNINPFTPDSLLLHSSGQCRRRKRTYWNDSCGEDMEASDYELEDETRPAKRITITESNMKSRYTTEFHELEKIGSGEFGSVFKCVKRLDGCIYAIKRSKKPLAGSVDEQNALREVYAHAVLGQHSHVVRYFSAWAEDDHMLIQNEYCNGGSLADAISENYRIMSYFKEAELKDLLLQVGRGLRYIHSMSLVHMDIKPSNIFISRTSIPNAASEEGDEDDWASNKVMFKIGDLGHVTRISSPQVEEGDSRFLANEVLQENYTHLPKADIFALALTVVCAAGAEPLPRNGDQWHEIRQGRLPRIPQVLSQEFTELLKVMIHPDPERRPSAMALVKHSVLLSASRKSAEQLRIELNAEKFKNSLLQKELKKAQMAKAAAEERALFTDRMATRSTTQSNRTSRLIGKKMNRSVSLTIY
# Assay: Wee1 Binding Assay (FRET)
# Conditions: not given
# Experimental: Wee 1 kinase was determined by using Fluorescence Resonance Energy Transfer (FRET) assay. […] The plate was shaken for 30 seconds, incubated for 60 min at RT, and recorded on fluorescence plate reader.
row,Compound,IC50
1,"C=CCn1c(=O)c2cnc(Nc3ccc(N4CCN(C)CC4)cc3)nc2n1-c1ccc2c(n1)C(F)(F)CC2 [Example 8, 2-Allyl-1-(7,7-difluoro-6,7-dihydro-5H-cyclopenta[b]pyridin-2-yl)-6-((4-(4-methylpiperazin-1-yl)phenyl)amino)-1,2-dihydro-3H-pyrazolo[3,4-d]pyrimidin-3-one]",< 0.01 µM
2,"C=CCn1c(=O)c2cnc(Nc3ccc(N4CCN(C)CC4)cc3)nc2n1-c1ccc2c(n1)[C@@](C)(O)CO2 (single isomer, unassigned) [Example 4A]",< 0.01 µM
3,"C=CCn1c(=O)c2cnc(Nc3ccc(N4CCN(C)CC4)c(C)c3)nc2n1-c1ccc2c(n1)[C@](O)(CC)CC2 (single isomer, unassigned) [Example 12A]",< 0.01 µM
4,"C=CCn1c(=O)c2cnc(Nc3ccc(N4CCN(C)CC4)cc3)nc2n1-c1ccc2c(n1)[C@](C)(O)CCC2 (single isomer, unassigned) [Example 25B]",< 0.01 µM
5,"C=CCn1c(=O)c2cnc(Nc3ccc(N4CCN(C)CC4)cc3)nc2n1-c1ccc2c(n1)[C@H](O)CC2 (single isomer, unassigned) [Example 1B]",< 0.01 µM

# Same assay, conditions: FRET, Wee1 kinase 2 nM, tracer 178 50 nM, 60 min at RT; read-out: Wee1 enzymatic IC50
row,Compound,IC50
1,"C=CCn1c(=O)c2cnc(Nc3ccc(N4CCN(C)CC4)c(C)c3)nc2n1-c1ccc2c(n1)[C@@](C)(O)CCC2 (single isomer, unassigned) [Example 27A]",< 0.01 µM
2,"C=CCn1c(=O)c2cnc(Nc3ccc(N4CCN(C)CC4)cc3)nc2n1-c1ccc2c(c1)[C@@](O)(CC)CC2 (single isomer, unassigned) [Example 22B]",< 0.01 µM
3,"C=CCn1c(=O)c2cnc(Nc3ccc(N4CCN(C)CC4)c(F)c3)nc2n1-c1ccc2c(n1)[C@@](C)(O)CC2 (single isomer, unassigned) [Example 11A]",< 0.01 µM
4,"C=CCn1c(=O)c2cnc(Nc3ccc(N4CCN(C)CC4)cc3)nc2n1-c1ccc2c(n1)C(=O)NC2 [Example 34, 2-allyl-6-((4-(4-methylpiperazin-1-yl)phenyl)amino)-1-(7-oxo-6,7-dihydro-5H-pyrrolo[3,4-b]pyridin-2-yl)-1,2-dihydro-3H-pyrazolo[3,4-d]pyrimidin-3-one]",< 0.01 µM
